In assay [1] the test system is Mus musculus. Nature of the assay: Neuroleptic activity in STD-ddy mouse assessed as inhibition of locomotion at 100 mg/kg, po measured for 3 mins. The format is functional. Particulars: 0.05 h.
Assay [2] relates to Mus musculus. The assay is described as follows: Neuroleptic activity in STD-ddy mouse assessed as inhibition of locomotion at 10 mg/kg, po measured for 3 mins. It is filed as functional. Particulars: 0.05 h.
Assay [3] relates to Mus musculus. Nature of the assay: Neuroleptic activity in STD-ddy mouse assessed as muscle relaxation at 100 mg/kg, po after 20 mins. It is filed as functional, organism-based. The arrangement: dose 100 mg/kg.
For assay [4], the system named is Mus musculus. The assay is described as follows: Neuroleptic activity in STD-ddy mouse assessed as catalepsy at 100 mg/kg, po measured up to 30 secs. The format is functional, organism-based. Also noted: dose 100 mg/kg.
For assay [5], the system named is Rattus norvegicus. The assay is described as follows: Neuroleptic activity in Wistar HLA rat assessed as inhibition of methamphetamine-induced stereotyped behavior at 1 mg/kg, ip administered 20 mins before methamphetamine challenge measured every 30 mins for 3 hrs followed by every 1 hr for further 3 hrs. It is filed as functional. The arrangement: Activity: scale not given: the % may be the effect or the level left. The note with it: route intraperitoneal.

In assay [6] the test system is Rattus norvegicus. Nature of the assay: Neuroleptic activity in Wistar HLA rat assessed as stimulation of methamphetamine-induced stereotyped behavior at 2 mg/kg, ip administered 20 mins before methamphetamine challenge measured every 30 mins for 3 hrs followed by every 1 hr for further 3 hrs. Particulars: route intraperitoneal. The format is functional.
The subject of assay [7] is Rattus norvegicus. Nature of the assay: Neuroleptic activity in Wistar HLA rat assessed as stimulation of methamphetamine-induced stereotyped behavior at 5 mg/kg, ip administered 20 mins before methamphetamine challenge measured every 30 mins for 3 hrs followed by every 1 hr for further 3 hrs. The format is functional. The note with it: route intraperitoneal.
For assay [8], the system named is Rattus norvegicus. The assay is described as follows: Neuroleptic activity in Wistar HLA rat assessed as stimulation of methamphetamine-induced stereotyped behavior at 10 mg/kg, ip administered 20 mins before methamphetamine challenge measured every 30 mins for 3 hrs followed by every 1 hr for further 3 hrs. It is filed as functional. The note with it: route intraperitoneal.

In assay [9] the test system is Mus musculus. Nature of the assay: Neuroleptic activity in po dosed STD-ddy mouse assessed as inhibition of methamphetamine-induced stereotyped behavior administered 100 mins before methamphetamine challenge measured for 20 mins. The format is functional.
Assay [10] relates to Rattus norvegicus. The assay is described as follows: Neuroleptic activity in sc dosed Wistar HLA rat assessed as inhibition of apomorphine-induced gnawing administered 1 hr before apomorphine challenge measured 5 to 20 mins. The format is functional.
Assay [11] concerns Mus musculus. Nature of the assay: Neuroleptic activity in po dosed STD-ddy mouse assessed as inhibition of locomotion measured for 3 mins. The format is functional. The note with it: 0.05 h.
Assay [12] has as its system Mus musculus. Nature of the assay: Neuroleptic activity in po dosed STD-ddy mouse assessed as catalepsy measured up to 30 secs. It is filed as functional.
Assay [13] has as its system Mus musculus. The assay is described as follows: Neuroleptic activity in po dosed STD-ddy mouse assessed as inhibition of active avoidance. It is filed as functional.
Assay [14] concerns Rattus norvegicus. The assay is described as follows: Neuroleptic activity in po dosed Wistar HLA rat assessed as inhibition of intracranial self-stimulation measured for 1 to 24 hrs. The format is functional.
The subject of assay [15] is Rattus norvegicus. Nature of the assay: Neuroleptic activity in Wistar HLA rat assessed as inhibition of methamphetamine-induced stereotyped behavior at 2 mg/kg, ip administered 20 mins before methamphetamine challenge measured every 30 mins for 3 hrs followed by every 1 hr for further 3 hrs. It is filed as functional. The arrangement: Activity: scale not given: the % may be the effect or the level left. The note with it: route intraperitoneal.

The subject of assay [16] is Rattus norvegicus. The assay is described as follows: Neuroleptic activity in Wistar HLA rat assessed as inhibition of methamphetamine-induced stereotyped behavior at 5 mg/kg, ip administered 20 mins before methamphetamine challenge measured every 30 mins for 3 hrs followed by every 1 hr for further 3 hrs. The format is functional. The arrangement: Activity: scale not given: the % may be the effect or the level left. Particulars: route intraperitoneal.

In assay [17] the test system is Rattus norvegicus. Nature of the assay: Neuroleptic activity in Wistar HLA rat assessed as inhibition of methamphetamine-induced stereotyped behavior at 10 mg/kg, ip administered 20 mins before methamphetamine challenge measured every 30 mins for 3 hrs followed by every 1 hr for further 3 hrs. It is filed as functional. The note with it: Rattus norvegicus, Wistar HLA, ip, route intraperitoneal.

For assay [18], the system named is Rattus norvegicus. The assay is described as follows: Neuroleptic activity in ip dosed Wistar HLA rat assessed as inhibition of intracranial self-stimulation measured for 1 to 24 hrs. The format is functional.
Assay [19] deals with Rattus norvegicus. Nature of the assay: Neuroleptic activity in Wistar HLA rat assessed as inhibition of methamphetamine-induced stereotyped behavior at 0.1 mg/kg, ip administered 20 mins before methamphetamine challenge measured every 30 mins for 3 hrs followed by every 1 hr for further 3 hrs. It is filed as functional. Also noted: scale not given: the % may be the effect or the level left. The note with it: route intraperitoneal.

Assay [20] has as its system Rattus norvegicus. The assay is described as follows: Neuroleptic activity in Wistar HLA rat assessed as inhibition of methamphetamine-induced stereotyped behavior at 0.2 mg/kg, ip administered 20 mins before methamphetamine challenge measured every 30 mins for 3 hrs followed by every 1 hr for further 3 hrs. It is filed as functional. Also noted: scale not given: the % may be the effect or the level left. The note with it: route intraperitoneal.

Assay [21] concerns Rattus norvegicus. The assay is described as follows: Neuroleptic activity in Wistar HLA rat assessed as inhibition of methamphetamine-induced stereotyped behavior at 0.5 mg/kg, ip administered 20 mins before methamphetamine challenge measured every 30 mins for 3 hrs followed by every 1 hr for further 3 hrs. It is filed as functional. The arrangement: scale not given: the % may be the effect or the level left. The note with it: route intraperitoneal.

SMILES strings stand for the structures. Calls of active or inactive are those of the source. The rule behind the calls is not given here.

We go through 4 compounds from ChEMBL document CHEMBL3228022, “Synthesis of 2,3,4,4a,5,9b-hexahydro-1H-pyrido[4,3-b]indole derivatives and their central nervous system activities” (1979).

On to `Cc1ccc2c(c1)[C@H]1CN(CCCC(=O)c3ccc(F)cc3)CC[C@H]1N2.Cl` (relative stereo), for which the inhibition in vivo (usually the drop in the measured response relative to a control, in per cent) at 100 mg/kg in the assay with Mus musculus [1] was 97.8%. Also, the inhibition in vivo at 10 mg/kg in the assay on Mus musculus [2] was determined as 75.9%. Moreover, the outcome with Mus musculus [3] and in the assay with Mus musculus [4] was Active. The Activity in the assay with Rattus norvegicus [5] is reported as 0%; in the assay with Rattus norvegicus [6], 50%; in the assay on Rattus norvegicus [7] it was above 75%; in the assay with Rattus norvegicus [8], 50%. The ED50 – broadly, the midpoint of the dose-response relation – stood at 23.8 mg/kg with Mus musculus [9]; 16.5 mg/kg in the assay on Rattus norvegicus [10]; 9.3 mg/kg with Mus musculus [11]; 15.3 mg/kg in the assay on Mus musculus [12]; 10 mg/kg in the assay with Mus musculus [13].

For the compound `Cc1ccc2c(c1)[C@H]1CN(C)CC[C@H]1N2` (relative stereo) [STOBADINE], the inhibition in vivo at 100 mg/kg with Mus musculus [1] stood at 37.6%. Further, the outcome with Mus musculus [3] and in the assay on Mus musculus [4] was inactive. The Activity in the assay on Rattus norvegicus [5] is on record as 0%; in the assay on Rattus norvegicus [6], 25%; in the assay on Rattus norvegicus [7] it was 50%; in the assay on Rattus norvegicus [8] it was above 75%. The ED50 in the assay on Mus musculus [9] was above 100 mg/kg; in the assay on Rattus norvegicus [10], above 100 mg/kg; in the assay on Mus musculus [11], 150 mg/kg; in the assay on Mus musculus [12], above 150 mg/kg; in the assay on Rattus norvegicus [14], above 100 mg/kg.

In the case of `CN(C)CCCN1c2ccccc2Sc2ccc(Cl)cc21` [CHLORPROMAZINE], the inhibition in vivo at 100 mg/kg in the assay with Mus musculus [1] came to 97.4%. The inhibition in vivo at 10 mg/kg with Mus musculus [2] was 67.6%; in the assay with Rattus norvegicus [17], above 75%. Also, the result in the assay on Mus musculus [3] and in the assay on Mus musculus [4] was Active. Further, the Activity in the assay on Rattus norvegicus [15] came to 0%; with Rattus norvegicus [16], 50%. Further, the ED50 turned out to be 13.3 mg/kg in the assay with Mus musculus [9]; 3.25 mg/kg in the assay with Rattus norvegicus [10]; 7.42 mg/kg in the assay with Mus musculus [11]; 9.97 mg/kg in the assay on Mus musculus [12]; 5.59 mg/kg with Mus musculus [13]; 2.1 mg/kg with Rattus norvegicus [18].

In the case of `O=C(CCCN1CCC(O)(c2ccc(Cl)cc2)CC1)c1ccc(F)cc1` [HALOPERIDOL], the inhibition in vivo at 1 mg/kg in the assay on Rattus norvegicus [5] (Rattus norvegicus, Wistar HLA, ip) was above 75%. For the same compound, the Activity was 0% in the assay with Rattus norvegicus [19], 25% with Rattus norvegicus [20] and above 75% in the assay on Rattus norvegicus [21].
